The source of these data is patent US20240368122A1, “JAK2 INHIBITORS AND METHODS OF USE THEREOF” (RELAY THERAPEUTICS, INC., priority 2021, published 2024).

Assay [1] deals with TF1 JAK2 V617F STAT3 reporter. The experiment in a line: Cellular TF1 STAT3 assay (luciferase reporter), JAK2 V617F. It counts as cell-based. As to conditions: read-out: Cell PD-TF1 JAK2 V617F STAT3 (IC50). An outline of the steps:
(§1)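 TF1 erythroleukemia cells expressing V617F JAK2 with a STAT3 or STAT5 luciferase reporter were seeded at 10,000 cells/well onto compound (10-point, 1:3 dilutions; 10 mM top stock at 1000×) and incubated 18-20 h at 37 °C, 5% CO2. Luminescence was read after ONE-glo addition, 10 min at room temperature.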

Assay [2] has as its system TF1 JAK2 V617F STAT5 reporter. The experiment in a line: Cellular TF1 STAT5 assay (luciferase reporter), JAK2 V617F. As to conditions: read-out: Cell PD TF1 V617F STAT5 (IC50). It counts as cell-based. An outline of the steps: as §1
The target of assay [3] is T1, JAK2 JH2 WT (V536-D812) [W659A, W777A, F794H solubilizing mutations] (Homo sapiens, UniProt O60674, F794H/W659A/W777A).
T1 construct: **JAK2 JH2 WT (V536-D812) [W659A, W777A, F794H solubilizing mutations]; C-thrombin-avi-His6; thrombin cleavage site (C); His6 (C); purchased Biortus
The experiment in a line: Surface Plasmon Resonance (SPR) binding assay, JAK2 JH2 domain. An outline of the steps:
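Kinetics came from 1:1 fits of single-cycle runs at 20 °C: four 3-fold dilutions from 5 uM for JH1 or 500 nM for JH2, 60 s association, and 300 s or 1200 s dissociation respectively. Protein was freshly captured per compound in the presence of 10 uM stabilizer compound, with running buffer of pH 7.5 HEPES/NaCl/glycerol/DTT plus 2% DMSO.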

Where [4] appears, read: Homo sapiens, TF-1, TF1 cells, JAK2 V617F.

pIC50, pKd: −log10 of the molar value. Where two headings read alike, the source gives them in different places.

T1 sequence (O60674 536-812 W659A/W777A/F794H): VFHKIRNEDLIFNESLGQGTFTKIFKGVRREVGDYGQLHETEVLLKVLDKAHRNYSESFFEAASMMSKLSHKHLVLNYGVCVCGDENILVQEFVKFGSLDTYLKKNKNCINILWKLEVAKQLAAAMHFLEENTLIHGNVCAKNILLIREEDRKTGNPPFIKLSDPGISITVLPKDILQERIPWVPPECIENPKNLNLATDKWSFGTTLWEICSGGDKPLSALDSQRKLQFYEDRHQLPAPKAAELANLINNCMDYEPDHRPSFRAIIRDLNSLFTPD

As for `CNC(=O)c1nnc(NC(=O)C2CC2)cc1Nc1cccc(-c2ccc(C(=O)N(C)C[C@@H]3CCCC3(F)F)cc2)c1OC` (single isomer, unassigned) [Compound 208], the negative logarithm of the IC50 (pIC50) in assay [1] (setting [4]) and in assay [2] (setting [4]) was 4.00 to 5.30 in each case. The molecule further had a pKd in assay [3] of 8.00 to 11.00.

Regarding `CNC(=O)c1nnc(NC(=O)C2CC2)cc1Nc1cccc(-c2ccc(C(=O)N(C)Cc3ncc(CN(C)C)s3)nc2)c1OC` [Compound 271], the pIC50 in assay [1] (setting [4]) and in assay [2] (setting [4]) was 5.30 to 6.30 in each case. Further, the negative logarithm of the Kd (pKd) in assay [3] is 8.00 to 11.00.

In the case of `CNC(=O)c1nnc(NC(=O)C2CC2)cc1Nc1cccc(-c2ccc(C(=O)N(C)Cc3scnc3C)nc2)c1OC` [Compound 210], the pIC50 in assay [1] (setting [4]) is 4.00 to 5.30; in assay [2] (setting [4]), 5.30 to 6.30. The molecule further showed a negative logarithm of the Kd (pKd) in assay [3] of 8.00 to 11.00.

Turning to `CNC(=O)c1nnc(NC(=O)C2CC2)cc1Nc1cccc(-c2cnn(C3CN(Cc4cc(C(F)F)cc(C#N)n4)C3)c2)c1OC` [Compound 344], the pIC50 in assay [1] (setting [4]) and in assay [2] (setting [4]) was 6.30 to 7.30 in each case. For the same molecule, the pKd in assay [3] was 8.00 to 11.00.

As for `CNC(=O)c1nnc(NC(=O)C2CC2)cc1Nc1cccc(-c2cn(C3CN(Cc4cccc(C#N)n4)C3)nc2C)c1OC` [Compound 185], the pIC50 in assay [1] (TF1 JAK2 V617F) and in assay [2] (TF1 JAK2 V617F) was 5.30 to 6.30 throughout. Moreover, the negative-log Kd (pKd) in assay [3] (SPR, JAK2 JH2 domain) is 8.00 to 11.00.

Turning to `CNC(=O)c1nnc(NC(=O)C2CC2)cc1Nc1cccc(-c2ccc(C3CN(Cc4cccnc4C(F)F)C3)nc2)c1OC` [Compound 288], the pIC50 in assay [1] (setting [4]) and in assay [2] (setting [4]) was 4.00 to 5.30 throughout. The same molecule had a pKd in assay [3] of 6.30 to 7.30.

As to `COc1c(Nc2cc(NC(=O)C3CC3)nn3cc(C)nc23)cccc1-c1ccc(C(=O)N(C)Cc2cc(C#N)ccn2)nc1` [Compound 219], the pIC50 in assay [1] (setting [4]) and in assay [2] (setting [4]) was 5.30 to 6.30 each time. Moreover, the negative-log Kd (pKd) in assay [3] was 8.00 to 11.00.

`CNC(=O)c1nnc(NC(=O)C2CC2)cc1Nc1cccc(-c2ccc(C3CN(Cc4ccccn4)C3)c(OC)c2)c1OC` [Compound 359]: the negative-log IC50 (pIC50) was 4.00 to 5.30 in assay [1] (setting [4]) and 5.30 to 6.30 in assay [2] (setting [4]). Besides, the pKd in assay [3] was 6.30 to 7.30.

`CNC(=O)c1nnc(NC(=O)C2CC2)cc1Nc1cccc(-c2cnc(C(=O)N(C)Cc3cn(C)nc3C)c(F)c2)c1OC` [Compound 172]: the pIC50 in assay [1] (TF1 JAK2 V617F) and in assay [2] (TF1 JAK2 V617F) was 6.30 to 7.30 each time. In assay [3] (SPR, JAK2 JH2 domain), this molecule showed a pKd of 8.00 to 11.00.

Regarding `CNC(=O)c1nnc(NC(=O)C2CC2)cc1Nc1cccc(-c2ccc(C(=O)N(C)Cc3c(C)nn(C)c3Cl)nc2)c1OC` [Compound 197], the pIC50 in assay [1] (setting [4]) and in assay [2] (setting [4]) was 6.30 to 7.30 throughout. This molecule showed a negative logarithm of the Kd (pKd) in assay [3] of 8.00 to 11.00.

With `CNC(=O)c1nnc(NC(=O)C2CC2)cc1Nc1cccc(-c2ccc(C(=O)N(C)[C@H](C)c3cc(C#N)ccn3)nc2)c1OC` (single isomer, unassigned) [Compound 181], the pIC50 in assay [1] (TF1 JAK2 V617F) and in assay [2] (TF1 JAK2 V617F) was 5.30 to 6.30 throughout. This molecule had a pKd in assay [3] (SPR, JAK2 JH2 domain) of 8.00 to 11.00.

On to `CNC(=O)c1nnc(NC(=O)C2CC2)cc1Nc1cccc(-c2cnn(C3CN([C@H](C)c4ccccn4)C3)c2)c1OC` (single isomer, unassigned) [Compound 163], for which the figures for the negative-log IC50 (pIC50) in assay [1] (TF1 JAK2 V617F) and in assay [2] (TF1 JAK2 V617F) were 5.30 to 6.30 and 4.00 to 5.30, respectively. In addition, the pKd in assay [3] (SPR, JAK2 JH2 domain) is 8.00 to 11.00.

For the molecule `CNC(=O)c1nnc(NC(=O)C2CC2)cc1Nc1cccc(-c2ccc(C(=O)N(C)Cc3cc(S(C)(=O)=O)ccn3)cc2)c1OC` [Compound 73], the pIC50 in assay [1] (TF1 JAK2 V617F) and in assay [2] (TF1 JAK2 V617F) was 6.30 to 7.30 each time. This molecule gave a negative logarithm of the Kd (pKd) in assay [3] (SPR, JAK2 JH2 domain) of 8.00 to 11.00.

In the case of `CCn1cncc1CN(C)C(=O)c1ccc(-c2cccc(Nc3cc(NC(=O)C4CC4)nnc3C(=O)NC)c2OC)cn1` [Compound 96], the pIC50 in assay [1] (TF1 JAK2 V617F) and in assay [2] (TF1 JAK2 V617F) was 5.30 to 6.30 each time. The molecule further had a pKd in assay [3] (SPR, JAK2 JH2 domain) of 8.00 to 11.00.

Regarding `CNC(=O)c1nnc(NC(=O)C2CC2)cc1Nc1cccc(-c2cn([C@H]3CN(Cc4cccc(C)n4)[C@@H]3C)nn2)c1OC` (stereo in doubt) [Compound 235], the negative logarithm of the IC50 (pIC50) in assay [1] (setting [4]) and in assay [2] (setting [4]) was 6.30 to 7.30 in each case. Besides, the pKd in assay [3] is 8.00 to 11.00.

Turning to `CNC(=O)c1nnc(NC(=O)C2CC2)cc1Nc1cccc(-c2cnn(C3CN(Cc4nccc(OC)n4)C3)c2)c1OC` [Compound 78], the negative logarithm of the IC50 (pIC50) in assay [1] (TF1 JAK2 V617F) and in assay [2] (TF1 JAK2 V617F) was 5.30 to 6.30 each time. This molecule gave a negative-log Kd (pKd) in assay [3] (SPR, JAK2 JH2 domain) of 8.00 to 11.00.

For `CNC(=O)c1nnc(NC(=O)C2CC2)cc1Nc1cccc(-c2ccc(C(=O)N(C)Cc3cn(C)nc3C(F)F)nc2)c1OC` [Compound 222], the pIC50 in assay [1] (setting [4]) and in assay [2] (setting [4]) was 6.30 to 7.30 in each case. Also, the pKd in assay [3] was 8.00 to 11.00.

With `CNC(=O)c1nnc(NC(=O)C2CC2)cc1Nc1cccc(-c2cnn(C3CN(Cc4cccc(C(=O)N5CCC(F)(F)C5)n4)C3)c2)c1OC` [Compound 357], the results for the negative logarithm of the IC50 (pIC50) in assay [1] (setting [4]) and in assay [2] (setting [4]) were 6.30 to 7.30 and 7.30 to 8.00, respectively. This molecule also showed a pKd in assay [3] of 8.00 to 11.00.

On to `CNC(=O)c1nnc(NC(=O)C2CC2)cc1Nc1cccc(-c2cnn(C3CN(Cc4cccc(C5(C)COC5)n4)C3)c2)c1OC` [Compound 369], for which the pIC50 in assay [1] (setting [4]) and in assay [2] (setting [4]) was 6.30 to 7.30 in each case. Also, in assay [3], the negative-log Kd (pKd) is 8.00 to 11.00.

Take `CNC(=O)c1nnc(NC(=O)C2CC2)cc1Nc1cccc(-c2cn([C@@H]3CN(Cc4cccc(C)n4)[C@H]3C(OC)OC)nn2)c1OC` (racemic) [Compound 247]: the pIC50 in assay [1] (setting [4]) and in assay [2] (setting [4]) was 5.30 to 6.30 throughout. The pKd in assay [3] is 8.00 to 11.00.

For `CNC(=O)c1nnc(NC(=O)C2CC2)cc1Nc1cccc(-c2ccc(C(=O)N(C)Cc3cscn3)nc2)c1OC` [Compound 57], the negative-log IC50 (pIC50) in assay [1] (TF1 JAK2 V617F) and in assay [2] (TF1 JAK2 V617F) was 6.30 to 7.30 each time. This molecule also had a negative-log Kd (pKd) in assay [3] (SPR, JAK2 JH2 domain) of 8.00 to 11.00.

For the molecule `CNC(=O)c1nnc(NC(=O)C2CC2)cc1Nc1cccc(-c2ccc(C(=O)N(C)CC3=NO[C@H]4CCCC[C@@H]34)nc2)c1OC` (single isomer, unassigned) [Compound 194], the pIC50 in assay [1] (TF1 JAK2 V617F) and in assay [2] (TF1 JAK2 V617F) was 5.30 to 6.30 throughout. The same molecule had a negative-log Kd (pKd) in assay [3] (SPR, JAK2 JH2 domain) of 8.00 to 11.00.

With `CNC(=O)c1nnc(NC(=O)C2CC2)cc1Nc1cccc(-c2cnn(C3CN(Cc4cccc5ncnn45)C3)c2)c1OC` [Compound 248], the pIC50 in assay [1] (setting [4]) and in assay [2] (setting [4]) was 6.30 to 7.30 each time. In assay [3], this molecule showed a pKd of 8.00 to 11.00.

`CNC(=O)c1nnc(NC(=O)C2CC2)cc1Nc1cccc(-c2ccc(C3CN(Cc4ccc5c(n4)CCC5)C3)nc2)c1OC` [Compound 385]: the pIC50 in assay [1] (setting [4]) was 4.00 to 5.30; in assay [2] (setting [4]), 5.30 to 6.30. This molecule had a negative logarithm of the Kd (pKd) in assay [3] of 6.30 to 7.30.

For `CNC(=O)c1nnc(NC(=O)C2CC2)cc1Nc1cccc(-c2ncn(C3CN(Cc4ccccn4)C3)n2)c1OC` [Compound 224], the pIC50 in assay [1] (setting [4]) and in assay [2] (setting [4]) was 4.00 to 5.30 each time. In addition, the negative logarithm of the Kd (pKd) in assay [3] is 8.00 to 11.00.

With `[2H]C([2H])([2H])NC(=O)c1nnc(NC(=O)C2CC2)cc1Nc1cccc(-c2ccc(C(=O)N(Cc3cc(C#N)ccn3)C([2H])([2H])[2H])nc2)c1OC` [Compound 74], the negative-log IC50 (pIC50) in assay [1] (TF1 JAK2 V617F) and in assay [2] (TF1 JAK2 V617F) was 6.30 to 7.30 in each case. The negative-log Kd (pKd) in assay [3] (SPR, JAK2 JH2 domain) was 8.00 to 11.00.

On to `CNC(=O)c1nnc(NC(=O)C2CC2)cc1Nc1ccc(Cl)c(-c2ccc(C(=O)N(C)Cc3cc(C#N)ccn3)cc2)c1OC` [Compound 217], for which the pIC50 in assay [1] (setting [4]) and in assay [2] (setting [4]) was 5.30 to 6.30 each time. In assay [3], the negative logarithm of the Kd (pKd) was 8.00 to 11.00.

As for `CNC(=O)c1nnc(NC(=O)C2CC2)cc1Nc1cccc(-c2cnc(C(=O)N(C)Cc3ccon3)c(F)c2)c1OC` [Compound 98], the values for the pIC50 in assay [1] (TF1 JAK2 V617F) and in assay [2] (TF1 JAK2 V617F) were 5.30 to 6.30 and 4.00 to 5.30, respectively. This molecule showed a pKd in assay [3] (SPR, JAK2 JH2 domain) of 8.00 to 11.00.
